In patent publication US6692939B2, “Nucleotide sequences encoding mammalian calcium activated chloride channel-adhesion molecules” (Cornell Research Foundation, Inc., priority 1997, dated 2004):

B1: wtLu-ECAM-1: wild type Lu-ECAM-1 purified with mAb 6D3 from extracts of bovine aortic endothelial cells (protein)
chain: MVLCLNVILFLTLHLLPGMKSSMVNLINNGYDGIVIAINPSVPEDEKLIENIKEMVTEASTYLFHATKRRVYFRNVSILIPMTWKSKSEYFIPKQESYDQADVIVANPYLKYGDDPYTLQYGRCGEKGKYIHFTPNFLLTNNFHIYGSRGRVFVHEWAHLRWGIFDEYNVDQPFYISRKNTIEATRCSTHITGINVVFKKCPGGSCITSLCRRDSQTGLYEAKCTFLPKKSQTAKESIMFMPSLHSVTEFCTEKTHNTEAPNLQNKMCNGKSTWDVIMNSVDFQNTSPMTEMNPPTHPTFSLLKSKQRVVCLVLDKSGSMSAEDRLFQMNQAAELYLIQVIEKGSLVGMVTFDSVAEIQNHLTRITDDNVYQKITAKLPQVANGGTSICRGLKAGFQAIIHSDQSTSGSEIILLTDGEDNEINSCFEDVKRSGAIIHTIALGPSAAKELETKSNMTGGYRFFANKDITGLTNAFSRISSRSGSITQQAIQLESKALKITGRKRVNGTVPVDSTVGNDTFFVVTWTIQKPEIVLQDPKGKKYKTSDFKEDKLNIRSARLQIPGIAETGTWTYSLLNNHASSQMLTVTVTTRARSPTIPPVIATAHMSQHTAHYPSPMIVYAQVSQGFLPVLGISVIAIIETEDGHQVTLELWDNGAGRDTVKNDGIYSRYFTDYYGNGRYSLKVHAQARNNTARLNLRQPQNKVLYVPGYVENGKIILNPPRPEVKDDLAKAKIEDFSRLTSGGSFTVSGAPPPGNHPSVFPPSKITDLEAKFKEDYIQLSWTAPGNVLDKGKANSYIIRISKSFMDRQEDFDNATLVNTSNLIPKEAGSKENFEFKPEHFRVENGTKFYISVQAINEANLISEVSHIVQAIKFIPLPEDSVHDLGTKISEITLAILGLPMIFSVF
modifications: OTHER INFORMATION: Lu-ECAM-1 precursor from bovine endothelial cells
notes: wild type Lu-ECAM-1 purified with mAb 6D3 from extracts of bovine aortic endothelial cells

How the values were obtained:
[1] = test system: mCLCA1; assay: whole cell recording in mCLCA1-transfected HEK293 cells; type: cell-based, murine; conditions: for effect on Ca2+ sensitive chloride current under whole cell conditions: mCLCA1-transfected HEK293 cells
Excerpt: (§1) In another embodiment of the invention, mCLCA1 cDNA was cut from the pBluescript vector (Stratagene) with SacI and PvuI, blunt ended with Klenow Polymerase and inserted into the tetracycline sensitive mammalian expression vector (pTet-splice, Life Technologies, Inc.) at the EcoRV site. HEK293 cells were cotransfected with mCLCAl cDNA cloned into the pTet-splice along with a vector expressing a tetracycline activator (pTet-tTak) using standard transfection techniques well known to those skilled in the art and as described above (Lipofectamine, Life Technologies, Inc.). Cells were cotransfected with a reporter vector as described above. In another illustration of this embodiment, human CLCA1, HEK293 cells were transfected with either pcDNA 3.1 containing the CLCA1 insert and a reporter vector (enhanced green fluorescent protein, EGFP, CLONTECH) or the reporter vector alone. Transfection can be carried out by standard techniques known to those skilled in the art including CaPO4 precipitation or Lipofectamine (Life Technologies).
(§2) This embodiment illustrates that the full length cDNAs of the present invention encode calcium sensitive chloride channels. The various cDNAs were used for transfection of a cell line. For electrophysiological studies, cells were also cotransfected with a reporter vector (pEGFP, CLONTECH). Cotransfection with a reporter vector allows for easy identification of transfected cells by visualization under a fluorescent microscope. Whole cell recording was then carried out in the transfected cells to determine the presence of calcium sensitive chloride channels.
(§3) Transfected cells were used for electrophysiological recording. Cells were superfused with a bath solution containing 112 mM NMDG-Cl, 30 mM sucrose, 1 mM EGTA, 0.366 mM CaCl2, 2 mM MgCl2, 5 mM N-2-hydroxy-xyethanylpiperazine-N-2-ethanesulfonic acid. Whole cell channel activity was recorded in transfected cells by using borosilicate glass electrodes (tip resistance 4-9 M ohms) filled with the bath solution. Recordings were carried out in the presence or absence of a […] channel inhibitors (DIDS, niflumic acid and DTT). To determine the effect of ionomycin on channel activity, electrodes filled with standard bath solution containing either 5 mM ATP and 1 mM EGTA in the presence of low intracellular calcium. After gigaohm seal formation, cells were clamped at +20 mV. Whole cell currents were recorded at room temperature, sampled at 5-10 kHz and filtered at 1-2 kHz. The I-V relationship was determined using 300 ms voltage steps from a holding potential of +20 mV to potentials from −100 to +100 mV at 10 mV intervals. To normalize measured membrane currents to membrane currents to membrane capacitance, the capacitive current transient recorded in response to a 10 mV hyperpolarizing pulse was integrated and divided by the given voltage to give total membrane capacitance (Cm) for each cell.

[2] = test system: hCLCA1; assay: whole cell recording in hCLCA1-transfected HEK293 cells; type: cell-based, human; conditions: for whole cell current after addition of inhibitor: hCLCA1-transfected cells, activated current 11.06 pA/pF
Excerpt: as §1, §2
as §3, with “To determine the effect of ionomycin on channel activity, electrodes filled with standard bath solution containing either 5 mM ATP and 1 mM EGTA in the presence of low intracellular calcium. After gigaohm seal formation, cells were clamped at +20 mV.” left out

[3] = test system: hCLCA2; assay: whole cell recording in hCLCA2-transfected HEK293 cells; type: cell-based, human; conditions: for sensitivity of the current to inhibitor: DIDS 300 uM, DTT 2 mM, niflumic acid 100 uM, tamoxifen 10 uM
Description: For human CLCA2, HEK293 cells were transfected using Lipofectamine using manufacturer's instructions. For example, 5 ul lipid and 0.5 ul of CLCA2 were cloned into pcDNA 3.1 per 35 mm well in a 2-3 hour incubation. For expression studies, the 2,832 bp CLCA2 ORF was PCR amplified from human trachea poly-A^+RNA (Clontech) following reverse transcription with Superscript RNase H reverse transcriptase (Life Technologies) and random hexamer priming. PCR was performed with Pwo DNA Polymerase (Boehringer; initial denaturation at 94° C. for 3 min, 35 cycles of 94° for 50 s, 58° C. for 30s, and 72° C. for 2 min with a time increment of 3 s per cycle for each extension step (72° C.), followed by a final extension step of 72° C. for 8 min). Primer sequences were (upstream primer: SEQ ID NO:41, downstream primer: SEQ ID NO:42 with NotI-linkers underlined). PCR products were gel purified, incubated with NotI, and cloned into the expression vector pcDNA3.1 (Invitrogen). Four different PCR products were sequenced to control for potential PCR-induced sequence errors. Cells were simultaneously cotransfected with a reporter vector as described above. Chloride channel conductance activity was recorded after allowing the cells to recover for 24 hours.
as §2, §3

[4] = test system: non-transfected or control-transfected cells; assay: whole cell recording in non-transfected or control-transfected cells; type: cell-based; conditions: ionomycin 2 uM
Description: as §2
Transfected cells were used for electrophysiological recording. […] Whole cell channel activity was recorded in transfected cells by using borosilicate glass electrodes (tip resistance 4-9 M ohms) filled with the bath solution. […] Whole cell currents were recorded at room temperature, sampled at 5-10 kHz and filtered at 1-2 kHz. The I-V relationship was determined using 300 ms voltage steps from a holding potential of +20 mV to potentials from −100 to +100 mV at 10 mV intervals. To normalize measured membrane currents to membrane currents to membrane capacitance, the capacitive current transient recorded in response to a 10 mV hyperpolarizing pulse was integrated and divided by the given voltage to give total membrane capacitance (Cm) for each cell.

[5] = test system: B1GF10 melanoma cells; conditions: mouse, in vivo; cited from earlier work
[6] = test system: lung-metastatic B16-Fl0 melanoma cells; assay: tumor cell adhesion assay on Lu-ECAM-1 coated wells; type: cell-based; conditions: wells coated with 100 μg/ml protein; 10 minutes at 37° C.
Description: Recombinant (r) Lu-ECAM-1 and wild type (wt) Lu-ECAM-1 were compared in their adhesion ability to lung-metastatic B16-Fl0 melanoma cells. Using anti-Lu-ECAM-1 mAb 6D3, wtLu-ECAM-1 was purified from extracts of bovine aortic endothelial cells, and rLu-ECAM-1 was purified from extracts of transfected HEK293 cells. The tumor cell adhesion assay was performed as described previously (Zhu et al., 1992, supra). Briefly, 100 μg/ml in phosphate buffered saline of either wtLu-ECAM-1 or rLu-ECAM-1 was used to coat wells of 96 plates overnight at 4° C. Wells were then washed with tissue culture medium, and each well is seeded with a suspension of tissue culture medium and 2×10^4 tumor cells which had been radio-labelled. After being spun onto the coated wells at 15 g for 1 minute, and incubated for 10 minutes at 37° C., nonadherent tumor cells were spun off at 150 g for 5 minutes. Adherent tumor cells were then dissolved in 1% SDS and counted in a liquid scintillation counter. Tumor cell attachment is recorded as the percent cells bound of the total cells seeded. Inhibition of tumor cell adhesion is determined by first incubating the Lu-ECAM-1 coated wells with mAb 6D3 (10 μg/ml) for 1 hour at room temperature before the tumor cells are added.

Row | Molecule | effect on Ca2+ sensitive chloride current under whole cell conditions [1] | whole cell current after addition of inhibitor [2] [pA/pF] | sensitivity of the current to inhibitor [3] | further results
1 | O=S(=O)(O)c1cc(N=C=S)ccc1C=Cc1ccc(N=C=S)cc1S(=O)(=O)O [DIDS] | inhibited | 1.63 | sensitive | whole cell current after perfusion of inhibitor ([1]; 300 uM DIDS, 2 mM Ca2+, basal 12.01±6.31 pA/pF): 1.84 ±0.96 pA/pF
2 | O[C@@H](CS)[C@@H](O)CS [DTT] | inhibited | 1.67 | sensitive | 
3 | C[C@H](CCC(=O)O)C[C@H](C)C[C@H](C)C(=O)/C=C(\O)[C@H](C)C[C@H](C)C/C=C/[C@@H](C)[C@@H](O)[C@@H](C)[C@@H](O)C[C@@H]1CC[C@@](C)([C@H]2CC[C@@](C)([C@@H](C)O)O2)O1 [ionomycin] |  |  |  | whole cell current at +100 mV with ionomycin ([1]; ionomycin 2 uM, low intracellular free Ca2+, basal 2.05±1.09 pA/pF): 10.23±3.46 pA/pF; maximally activated current at +100 mV after external perfusion of ionomycin ([2]; ionomycin 2 uM, increase from 0.65 pA/pF): 11.06 pA/pF; effect of ionomycin on current in non-transfected or control-transfected cells [4]: No significant effect; activation of the current by ionomycin ([3]; ionomycin 4 uM in bath, pipet about 25 nM Ca2+, 2 mM Ca2+ in the bath): activated the current
4 | O=C(O)c1cccnc1Nc1cccc(C(F)(F)F)c1 [niflumic acid] | inhibited | 2.07 | sensitive | 
5 | CC/C(=C(\c1ccccc1)c1ccc(OCCN(C)C)cc1)c1ccccc1 [tamoxifen] |  |  | sensitive | 
6 | B1 |  |  |  | prevention or inhibition of metastatic colonization of the lungs by B1GF10 cells [5]: inhibition of metastatic colonization; adhesion of lung-metastatic tumor cells supported (percent cells bound of the total cells seeded) [6]: 43%
